{"source": "patent US12589071B2", "about": "“Suckable and/or melt-in-mouth tablet based on hyaluronic acid and chondroitin sulphate and salts thereof” (SOFAR SWISS SA, priority 2017, dated 2026)", "system": "patients with a first diagnosis of GERD with extraesophageal (upper) symptoms", "experiment": "Randomised open-label clinical study, Experimental Part (II): RSI (Reflux Symptom Index) questionnaire", "format": "in vivo, human", "excerpt": "The aim of the present study was to assess, in patients who, at the first diagnosis, presented with extraesophageal symptoms associated with gastroesophageal reflux disease (GERD), the effect of a 6-week treatment with the composition C1 comprising a chondroitin sulphate, a hyaluronic acid or a salt thereof and an aluminium hydroxide, in combination with a treatment with proton pump inhibitors (PPI) versus treatment with PPIs alone; i.e. to verify the reduction in the frequency of symptoms in patients by means of the Likert questionnaire, and the severity of upper symptoms, by means of the RSI (Reflux Symptom Index) questionnaire, and to assess Responders and Non-Responders in the two groups of patients after 6 weeks of treatment versus the baseline.\nThe multi-centre prospective, randomised, open-label clinical study, with two parallel arms of treatment, followed by the FU period, provided for the treatment, for 6 weeks, of 78 patients diagnosed for the first time, who presented with upper symptoms ascribable to a diagnosis of GERD, in the presence/absence of typical symptoms. The patients were thus randomly assigned, on an open-label basis, in a 1:1 ratio: • 39 patients were treated with C1+PPIs (omeprazole) for 6 weeks; and • 39 patients were treated only with a PPI (omeprazole) for 6 weeks. […]\nOn these occasions patients filled out the RSI questionnaire, for the assessment of the severity of symptoms, and the Likert scale, for the assessment of the reduction in the frequency of symptoms. […] In this period, only the use of omeprazole (PPI), at a constant dosage, was allowed, according to the indications of the investigator, both to the patients included in the untreated group and in the treatment group, as a rescue medication to control symptoms and safety data were assessed. […]"}
{"compound": "COc1ccc2[nH]c([S+]([O-])Cc3ncc(C)c(OC)c3C)nc2c1", "note": "(stereo not drawn) [PPI, omeprazole]", "values": [{"measurement": "MEAN of DELTA RSI per treatment group", "setting": "V4 (6 weeks) versus baseline V1, N 28 (C1 + PPI), N 36 (PPI)", "result": "−13.69"}, {"measurement": "DELTA (RSI V4 versus RSI V1, individual subject)", "setting": "after 6 weeks of treatment versus baseline, one line per subject, preliminary, listed as IPPI", "result": "−11"}, {"measurement": "RSI V4 (individual subject score)", "setting": "examination V4 after 6 weeks of treatment, one line per subject, preliminary, listed as IPPI", "result": 13}]}
